According to PMC9578445, “Association of respiratory failure with inhibition of NaV1.6 in the phrenic nerve” (Channels, 2022):
Where two headings read alike, the source gives them in different places.

Columns and labels:
[1] = Plasma exposure in phrenic nerve activity assay; format: in vivo; conditions: rat; for concentration at 15 min / concentration at 30 min / concentration at 10 min: CD, plasma, intravenous; for concentration at 15 min / concentration at 30 min: 10 mg/kg
Source text: (§1) For in vivo CVR and phrenic nerve activity studies, all raw signals were amplified via general purposed biological amplifier (filter settings DC – 3-5 KhZ) then digitized, calibrated and collected at a minimum of 500 Hz (1000 Hz for ECG and 2000 Hz for cardiac electrograms, and 10 KHz for phrenic nerve activity) using Notocord-HEM data acquisition and analysis software. The raw signal was filtered following acquisition with a bandpass filter set to 200–800 Hz). Vehicle (100% dimethylformamdide, DMF) or compound formulated in the vehicle was administered as a 30-minute IV infusion at 0.0167 μL/g body weight/min. Doses were selected to achieve unbound plasma concentrations in range of measured Nav1.6 IC50 values when infused at 0.0167uL/g body weight/min based on measured rat clearance, plasma protein binding and Nav1.6 IC50. Exposure in rats was determined in separate pharmacokinetics experiments where compounds were administered via IV dosing.

phrenic nerve = assay: Rat phrenic nerve firing assay; conditions: rat in vivo, measured at 30 minutes
Experimental: To determine direct effects on phrenic nerve activity, male CD rats were anesthetized and instrumented as described above for the CV/R assay. In addition, an incision was made in the ventral neck area and the right phrenic nerve identified anatomically and isolated via blunt dissection. The phrenic nerve was placed over a high impedance bipolar hook electrode and the nerve covered with mineral oil to prevent desiccation. Animals were mechanically ventilated via a tracheotomy (~10 mL/kg, 40–70 breaths/min, titrated individually to stabilize phrenic activity) following neuromuscular block (pancuronium 0.5–1 mg/kg, iv) and bilateral vagotomy to better define test agent effects on phrenic nerve activity. Anesthesia was verified repeatedly following pancuronium administration by testing the BP/HR response to noxious stimuli. Spontaneous electrical activity was continuously recorded and then later rectified and averaged to calculate frequency, width, peak height of bursts, and magnitude. Magnitude of the activity was calculated by taking the absolute value of the raw signal and then averaging that signal over 50 ms increments. The resulting average signal was then converted to magnitude by subtracting the […] for each phrenic burst complex. The resulting magnitude values were then averaged over 1 minute increments to result in the graphs shown. Figure S1 in the Supplemental Information illustrates this analytical procedure.
as §1

[2] = system: rat diaphragm with the phrenic nerve attached; assay: Rat hemisected diaphragm (HMD) assay, ex vivo
Source text: Wistar derived male or female rats weighing 450 ± 50 g were euthanized by CO2 overexposure. The diaphragm with the phrenic nerve attached was removed and placed into a tissue recording chamber containing Krebs solution pH 7.4; (composition in g/L: NaCl 6.89, KCl 0.35, CaCl2 0.277, KH2PO4 0.163, MgSO4 · 7H2O 0.296, NaHCO3 2.1 and glucose 1.8). A piece of cotton was attached to the top of the phrenic nerve over the jaw electrodes. A second piece of cotton was attached to the tip of the tendinous tissue at the apex of the diaphragm preparation for attachment to an isometric transducer under 1 g tension. The rib of the diaphragm preparation was secured to the bottom of the jaw electrodes. […] The recording chamber was placed into a water bath kept at a temperature of 32°C by means of a suitable thermoregulator consisting of a thermostat and heating elements in addition to a water circulator.
The isometric transducer was connected to an amplifier and the tissue response was recorded on a two-pen recorder set at 1 volt. Field stimulation [S48 Stimulator (GRASS) set at 0.2 Hz (12 pulses per minute), 0.5 ms pulse duration at 70% of maximum voltage (about 3 to 5 volts)] delivered to two circle platinum electrodes (0.2 cm in diameter) was applied for transmural tissue stimulation. Each tissue preparation was washed three times in Krebs solution every 15 minutes for a 60 minute equilibration period and permitted to develop contractions. D-Tubocurarine (300 µM dissolved in 0.1 mL distilled water for a final 3 µM bath concentration) was added to establish an isometrically recorded control relaxation response ranging from one to two centimeters and corresponding to 60–70% of maximal relaxation. […] The tissue was then washed periodically until the contraction returns to the baseline value.
Sixty minutes later, the test compound was added (e.g. 30 mM in 0.01 mL vehicle of 100% DMSO, for final concentration of 30 µM test compound and 0.1% DMSO). A test compound recorded relaxation response of 50% or more (≥50%) within 5 minutes, relative to the 3 µM d-Tubocurarine control response, indicates neuromuscular blocking activity.

[3] = Plasma exposure in rat CV/R assay; format: in vivo; conditions: rat, rat, IV infusion; for concentration at 15 min / concentration at 30 min: CD, plasma, iv
Source text: as §1, with “Doses were selected to achieve unbound plasma concentrations in range of measured Nav1.6 IC50 values when infused at 0.0167uL/g body weight/min based on measured rat clearance, plasma protein binding and Nav1.6 IC50.” left out

[4] = system: anesthetized male CD rats; assay: Rat Cardiovascular/Respiratory (CV/R) assay; format: in vivo; set-up: ∆ QRS Interval: unit not given here; conditions: rat, IV infusion
Experimental: Male CD Rats were anesthetized with ketamine:xylazine (85 mg/kg:5 mg/kg, im, to effect). The left femoral artery and vein were cannulated for the measurement of blood pressure and the administration of test agent, respectively. The right femoral vein was cannulated for maintenance anesthetic infusion (ketamine:xylazine ~35 mg/kg/hr:1.5 mg/kg/hr, iv, to effect). Needle electrodes were placed subcutaneously at the right axillary and left inguinal areas to record lead II ECGs. When ECG intervals were required to determine effect on cardiac conduction a pacing/recording electrode catheter was advanced through the right jugular vein to pace the heart. ECG intervals were then measured at a fixed cardiac rate of 400 beats/minute to remove any variability of intrinsic heart rate on these parameters.
To determine the test agent-dependent effect on respiratory rate, a tracheotomy was also performed using a short length of polyethylene tubing containing a thermistor (AD Instruments). The change in temperature detected by the thermistor was used to calculate respiratory rate.
as §1

[5] = male, 3 mg/kg, 3 mg/kg, read-out: Total [plasma]
[6] = male, 3 mg/kg, 3 mg/kg, read-out: Unbound [plasma]
[7] = 30 mg/kg, 11 min, just prior to death

O=S(=O)(Nc1ncns1)c1cc(F)c(NCC23CCCN2CCC3)cc1F [SSCI-4]
concentration at 15 min ([1]; read-out: Total [plasma]): 55.3 ± 5.5 µM
concentration at 15 min ([1]; read-out: Unbound [plasma]): 23.3 ± 2.61 µM
concentration at 30 min ([1]; read-out: Total [plasma]): 61.6 µM
concentration at 30 min ([1]; read-out: Unbound [plasma]): 29.3 µM
concentration at 10 min ([1]; 30 mg/kg, read-out: Total [plasma]): 91.4 µM
concentration at 10 min ([1]; 30 mg/kg, read-out: Unbound [plasma]): 43.5 µM
Total [plasma] ([1]; 30 mg/kg, 25–33 min): 108.234 ± 9.606 µM
Unbound [plasma] ([1]; 30 mg/kg, 25–33 min): 51.46 ± 4.56 µM
percent decrease in the magnitude of the phrenic nerve signal (phrenic nerve): 50%
IC50 ([2]; Rattus norvegicus, relative to 3 μM d-Tubocurarine relaxation = 100%): 8.9 µM
concentration at 15 min ([3]; 10 mg/kg, 10 mg/kg, read-out: Total [plasma]): 31.5 µM
concentration at 15 min ([3]; 10 mg/kg, 10 mg/kg, read-out: Unbound [plasma]): 15 µM
concentration at 15 min [3, 5]: 11.4 µM
concentration at 15 min [3, 6]: 5.4 µM
concentration at 30 min [3, 5]: 17.6 µM
concentration at 30 min [3, 6]: 8.4 µM
Total [plasma] ([3]; 10 mg/kg, 25 min, just prior to death): 39.3a μM
Total [plasma] [3, 7]: 89.7a μM
Unbound [plasma] [3, 7]: 42.7a μM
∆ Heart Rate ([4]; 3 mg/kg, 15 min): −3.5 bpm
∆ Mean Arterial Pressure ([4]; 3 mg/kg, 15 min): 6.4 mmHg
∆ QRS Interval ([4]; 3 mg/kg, 15 min): 2.4
∆ respiratory rate ([4]; 3 mg/kg, 15 min): −24.7%
∆ Heart Rate ([4]; 3 mg/kg, 30 min): −5.6 bpm
∆ Mean Arterial Pressure ([4]; 3 mg/kg, 30 min): 2.4 mmHg
∆ QRS Interval ([4]; 3 mg/kg, 30 min): 4.5
∆ respiratory rate ([4]; 3 mg/kg, 30 min): −26.1%
∆ Heart Rate ([4]; 10 mg/kg, 15 min): 6.6 bpm
∆ Mean Arterial Pressure ([4]; 10 mg/kg, 15 min): −5.5 mmHg
∆ QRS Interval ([4]; 10 mg/kg, 15 min): 7.6
∆ respiratory rate ([4]; 10 mg/kg, 15 min): −17.8%
∆ respiratory rate ([4]; 10 mg/kg, 25 min): −100%
∆ respiratory rate ([4]; 30 mg/kg, 11 min): −100%

COc1cc2c3cc1Oc1cc(ccc1O)C[C@@H]1c4c(cc(OC)c(O)c4Oc4ccc(cc4)C[C@@H]3N(C)CC2)CC[N+]1(C)C [d-Tubocurarine, D-Tubocurarine, reference compound]
relaxation, % of the maximal relaxation of the muscle ([2]; 3 μM, termed the 100% inhibition level): 60–70%
